Reference: the NIST ThermoML archive (doi:10.1016/j.jct.2015.07.014)
Numbers after ± are expanded uncertainties.

Conditions: Fluid (supercritical or subcritical phases), Buoyancy - hydrostatic balance with magnetic suspension - one sinker

O=C=O [carbon dioxide]
Conditions	mass density [kg/m3]
323.2 K, 10968 kPa	497.981 ± 0.29
323.24 K, 14966 kPa	698.2 ± 0.34
323.24 K, 18962 kPa	770.445 ± 0.37
323.24 K, 24961 kPa	833.514 ± 0.4
323.25 K, 12967 kPa	633.58 ± 0.32
323.25 K, 16965 kPa	739.597 ± 0.36
323.25 K, 22962 kPa	815.681 ± 0.39
323.25 K, 26959 kPa	849.181 ± 0.4
323.25 K, 28037 kPa	856.967 ± 0.41
323.26 K, 20966 kPa	795.018 ± 0.38
